# Laboratory results from US9278994B2, “Short antimicrobial lipopeptides” (Helix BioMedix Inc., priority 2012, dated 2016).
# Where a SMILES comes first, the peptide text is derived from it. [ ]: non-standard residue; d: D form. The star is where a group is joined. Palmitoyl = CCCCCCCCCCCCCCCC(=O)*
# What was measured:
# [1] = test system: P. acnes; format: cell-based, Propionibacterium acnes
# Description: (§1) 2. Bacterial strains and culture conditions. E. coli UB1005, S. aureus SAP0017 (MRSA) and C. albicans 105 were grown in Mueller Hinton (MH) (Difco, BD Biosciences, MD) agar plates and broth (2 g of beef extract, 17.5 g of acid hydrolysis of casein and 1.5 g of starch per liter) at 37° C. unless otherwise indicated. Bacteria from frozen stock were subcultured onto freshly made MH agar plates prior to susceptibility testing. For P. acnes, the bacterium was grown in BBL™ Brain-Heart infusion (Becton, Dickinson & Company, Sparks Md.) broth or agar plates at 37° C. in anaerobic condition generated using a anaerobic jar and AnaeroGen™ (Oxoid, Basingstoke, Hampshire, England).
# (§2) 3. […] The minimal inhibitory concentration (MIC) of each peptide was determined using modified CLSI microtiter broth dilution assay (Methods for Dilution Antimicrobial Susceptibility Tests for Bacteria That Grow Aerobically; Approved Standard—Ninth Edition). An inoculum of 10^5-10^6 colony forming units (CFU)/ml was used or 10^4 CFU/ml for yeast. The MIC value was taken as the lowest peptide concentration at which more than 90% of microbial growth was inhibited after 15 to 20 h of incubation at 37° C. For P. acnes, the incubation was kept under anaerobic condition at 37° C. for 2 weeks before MIC was determined Kill kinetics was performed using a given concentration (about 2-5-fold MIC) of peptide mixed with indicator microorganism. After appropriate dilution the cells were plated on agar plates after defined time intervals and incubated at 37° C. overnight. In the case of P. acnes an extended incubation period was required. The CFU was counted and plotted as survival of bacteria after peptide treatment over time, which indicates the effectiveness of a peptide to kill a microbe.
# [2] = test system: EpiDerm (EPI-200) skin tissue; assay: Skin tissue toxicity, EpiDerm skin model with MTT assay; format: cell-based; conditions: tissue viability (MTT), treated 20 hr
# Description: 4. Skin tissue toxicity determination. Skin toxicity and compatibility was determined using EpiDerm (EPI-200) skin tissue and MTT Kit (MTT-100) (MatTek, Ashland, Mass.) according to the manufacture's instruction. 1% Triton X-100 and PBS were used as positive (toxic) and negative (non-toxic) control, respectively.
# Potential for dermal irritancy of the lipodipeptides was tested using EpiDerm™ Skin Model (MatTek, Ashland, Mass.) in combination with a modified MTT assay. […] EpiDerm™ consists of organized basal, spinous, granular, and cornified layers analogous to those found in vivo. The tissues were treated with each compound at desired concentration for 20 hr.
# [3] = test system: S. aureus SAP0017 (MRSA)
# Description: (§3) We conducted the minimal inhibitory concentration (MIC) determination using CLSI (Clinical and Laboratory standard Institute) recommended standard protocol for antimicrobials (Methods for Dilution Antimicrobial Susceptibility Tests for Bacteria That Grow Aerobically; Approved Standard—Ninth Edition).
# as §1, §2
# [4] = test system: E. coli UB1005
# Description: as §3, §1, §2
# [5] = test system: C. albicans 105
# Description: as §3, §1, §2
# [6] = test system: S. aureus SAP0017 (MRSA); format: cell-based, Staphylococcus aureus; conditions: for logs of S. aureus eradicated in a kill assay: SAP0017
# Description: as §2
# [7] = test system: P. acnes ATCC11827; assay: Kill kinetics in PBS; format: cell-based, Propionibacterium acnes; conditions: detection limit 10 CFU/ml
# Description: as §2
# [8] = test system: histamine induced IL-6 expression; assay: Anti-inflammatory activity in keratinocytes (data not shown); format: cell-based; conditions: human skin keratinocytes
# Source text: We modified both peptides via N-terminal acetylation with lipids of various lengths to the alpha amino group of KPV and KdPT.
# [9] = test system: C. albicans strain SC5314; conditions: Rauch et al. 2009; cited from earlier work
# [10] = test system: S. aureus and C. albicans; conditions: Cutuli et al. 2000, no MIC determined; cited from earlier work
Compound,MIC P. acnes [1] [µg/mL],Toxicity EpiDerm [2] [µg/mL],MIC S. aureus [3] [µg/mL],MIC E. coli [4] [µg/mL],MIC C. albicans [5] [µg/mL],logs of S. aureus eradicated in a kill assay [6],other results
"CCCCCCCCCCCCCCCC(=O)N[C@@H](CCCCN)C(=O)N1CCC[C@H]1C(N)=O [HB2202, Pal-KP-NH2] (Palmitoyl-Lys-Pro-NH2)",1,>2000,16,64,16,,
"CC(C)[C@H](NC(=O)[C@@H]1CCCN1C(=O)[C@@H](N)CCCCN)C(=O)O [HB2067, KPV-OH, reference compound] (H-Lys-Pro-Val-OH)",>2000,>2000,>2000,>2000,>2000,,
"CCCCCCCCCCCCCCCC(=O)N[C@@H](CCCCN)C(=O)N1CCC[C@@H]1C(=O)N[C@H](C(N)=O)[C@@H](C)O [HB2178, Pal-K-dPT-NH2] (Palmitoyl-Lys-[dP]-Thr-NH2)",2,>2000,,,16,5-6 logs,"survival of microbes (CFU/ml), 0 hr ([6]; S. aureus in PBS, 0 hr, detection limit 10 CFU/ml): 23050000 CFU/ml; survival of microbes (CFU/ml), 20 min ([6]; S. aureus in PBS, 20 min, detection limit 10 CFU/ml): <10 CFU/ml; survival of microbes (CFU/ml), 1 hr ([6]; S. aureus in PBS, 1 hr, detection limit 10 CFU/ml): <10 CFU/ml; survival of microbes (CFU/ml), 2 hr ([6]; S. aureus in PBS, 2 hr, detection limit 10 CFU/ml): <10 CFU/ml; survival of microbes (CFU/ml), 3 hr ([6]; S. aureus in PBS, 3 hr, detection limit 10 CFU/ml): <10 CFU/ml; survival of microbes (CFU/ml), 0 hr ([7]; 0 hr): 750000 CFU/ml; survival of microbes (CFU/ml), 20 min ([7]; 20 min): 20 CFU/ml; survival of microbes (CFU/ml), 1 hr ([7]; 1 hr): <10 CFU/ml; survival of microbes (CFU/ml), 2 hr ([7]; 2 hr): <10 CFU/ml; survival of microbes (CFU/ml), 3 hr ([7]; 3 hr): <10 CFU/ml"
"CC(C)[C@H](NC(=O)[C@@H]1CCCN1C(=O)[C@@H](N)CCCCN)C(N)=O [HB2068, KPV-NH2, reference compound] (H-Lys-Pro-Val-NH2)",>2000,>2000,>2000,>2000,>2000,,
"CCCCCCCCCCCCCCCC(=O)N[C@@H](CCCCN)C(=O)N1CCC[C@H]1C(=O)N[C@@H](C)C(N)=O [HB2208, Pal-KPA-NH2] (Palmitoyl-Lys-Pro-Ala-NH2)",1,>2000,16,128,16,5-6 logs,
"CCCCCCCCCCCCCCCC(=O)N[C@@H](CCCCN)C(=O)N1CCC[C@H]1C(=O)N[C@H](C(N)=O)C(C)C [HB2180, Pal-KPV-NH2] (Palmitoyl-Lys-Pro-Val-NH2)",1 to 2,>2000,8,128,16,5-6 logs,
"NCCCC[C@H](N)C(=O)N1CCC[C@@H]1C(N)=O [HB2231, K-dP-NH2] (H-Lys-[dP]-NH2; N-terminus assumed)",>2000,,>2000,>2000,>2000,,anti-inflammatory activity against histamine induced IL-6 expression [8]: moderate anti-inflammatory activity
lysine-proline-valine [KPV],,,,,,,concentration up to which yeast growth was not inhibited [9]: > 100 µM; antimicrobial activity in phosphate buffer [10]: antimicrobial activity
"NCCCC[C@H](N)C(=O)N1CCC[C@H]1C(N)=O [HB2230, KP-NH2] (H-Lys-Pro-NH2; N-terminus assumed)",>2000,,>2000,>2000,>2000,,anti-inflammatory activity against histamine induced IL-6 expression [8]: moderate anti-inflammatory activity
"CCCCCCCCCCCCCCCC(=O)N[C@@H](CCCCN)C(=O)N1CCC[C@@H]1C(N)=O [HB2203, Pal-K-dP-NH2] (Palmitoyl-Lys-[dP]-NH2)",1 to 2,>2000,8,128,16,,
"C[C@@H](O)[C@H](NC(=O)[C@H]1CCCN1C(=O)[C@@H](N)CCCCN)C(=O)O [HB2090, K-dPT-OH, reference compound] (H-Lys-[dP]-Thr-OH)",>2000,>2000,>2000,>2000,>2000,,
"C[C@@H](O)[C@H](NC(=O)[C@H]1CCCN1C(=O)[C@@H](N)CCCCN)C(N)=O [HB2089, K-dPT-NH2, reference compound] (H-Lys-[dP]-Thr-NH2)",>2000,>2000,>2000,>2000,>2000,,
"CCCCCCCCCCCCCCCC(=O)N[C@@H](CCCCN)C(=O)N1CCC[C@H]1C(=O)N[C@@H](CC(C)C)C(N)=O [HB2209, Pal-KPL-NH2] (Palmitoyl-Lys-Pro-Leu-NH2)",4 to 8,>2000,16,>2000,32,5-6 logs,
